The subject of series [1] is Puccinia recondita f. Sp. Tritici. Briefly: Fungicidal activity against Puccinia recondita f. sp. tritici / wheat / leaf disc preventative (brown rust). It is filed as in vivo. Conditions: foliar, 200 ppm in the applied formulation, wheat leaf segments, preventative, compared to untreated control leaf disks, read-out: disease control. The method, boiled down: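 Preventative leaf-segment test, wheat cv. Kanzler on water agar. Spray compound at 200 ppm, inoculate with spores 1 day later; 19° C., 75% rh, 12/12 h light. Read-out: % disease control vs untreated, 7 to 9 days after application.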

Series [2] shares this test system. Briefly: Fungicidal activity against Puccinia recondita f. sp. tritici / wheat / leaf disc curative (brown rust). It is filed as in vivo. The note with it: foliar, 24 h, 200 ppm in the applied formulation, wheat leaf segments, curative (applied 1 day after inoculation), compared to untreated control leaf disks, read-out: disease control. The method, boiled down: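 Segments of wheat cv. Kanzler were laid on agar and inoculated with a spore suspension of the rust, then held in darkness at 19° C and 75% relative humidity. One day later the water-diluted formulated compound was applied, with incubation continued under a 12 h light/dark cycle.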

Series [3] deals with Phakopsora Pachyrhizi. Briefly: Fungicidal activity against Phakopsora pachyrhizi / soybean / leaf disc preventative (Asian soybean rust). The class given is in vivo. Conditions: foliar, 200 ppm in the applied formulation, soybean leaf disks, compared to untreated control leaf disks, read-out: disease control. Summed up: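 Preventative soybean leaf-disc test: discs on water agar sprayed with diluted formulated compound, inoculated one day later with spores on the lower surface. Held 24–36 h dark at 20°C, 75% rh, then 12 h light/day; percent disease control versus untreated discs scored 12–14 days after application.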

Series [4] has as its system Glomerella lagenarium (Colletotrichum lagenarium). Description: Fungicidal activity against Glomerella lagenarium (Colletotrichum lagenarium) liquid culture / cucumber / preventative (anthracnose). The class given is cell-based. The note with it: Colletotrichum orbiculare; 20 ppm in the applied formulation; liquid culture (PDB), growth inhibition measured photometrically after 3 to 4 days; compared to untreated control; read-out: disease control. Summed up:
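Photometric read-out of fungal growth after 2–7 days, expressed as percent antifungal activity versus untreated check. Cryo-stored conidia in PDB; compound at 20 ppm; dark, 24 °C, 96% RH.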

In general, melting point refers to the temperature, or range, at which the solid turns liquid.

As for `CCOC(=O)c1cnn(CC(=O)N(Cc2ccc(-c3noc(C(F)(F)F)n3)cc2)OC)c1` [Compound 1.807, ethyl 1-[2-[methoxy-[[4-[5-(trifluoromethyl)-1,2,4-oxadiazol-3-yl]phenyl]methyl]-amino]-2-oxo-ethyl]pyrazole-4-carboxylate], the melting point was in the range of 79.1 to 80.4 °C.
In the case of `CON(Cc1ccc(-c2noc(C(F)(F)F)n2)cc1)C(=O)NC(C)(C)C` [Compound 3.19, 3-tert-butyl-1-methoxy-1-[[4-[5-(trifluoromethyl)-1,2,4-oxadiazol-3-yl]phenyl]methyl]urea], the pest or weed control at 200 ppm in series [1], in series [2] and in series [3] was no less than 80% throughout. The inhibition of growth at 20 ppm in series [4] is no less than 80%.
As for `C#CCN(Cc1ccc(-c2noc(C(F)(F)F)n2)cc1)C(=O)C(C)(C)C` [Compound 1.182, 2,2-dimethyl-N-prop-2-ynyl-N-[[4-[5-(trifluoromethyl)-1,2,4-oxadiazol-3-yl]phenyl]methyl]-propanamide], the pest or weed control at 200 ppm in series [1], in series [2] and in series [3] was no less than 80% each time. The inhibition of growth at 20 ppm in series [4] is no less than 80%.
Consider `CCC(=O)N(Cc1ccc(-c2noc(C(F)(F)F)n2)cc1)Cc1ccco1` [Compound 1.457, N-(2-furylmethyl)-N-[[4-[5-(trifluoromethyl)-1,2,4-oxadiazol-3-yl]phenyl]methyl]-propanamide], for which the pest or weed control at 200 ppm in series [1], in series [2] and in series [3] was no less than 80% throughout. For the same molecule, the inhibition of growth at 20 ppm in series [4] is no less than 80%.
Regarding `CCCON(Cc1ccc(-c2noc(C(F)(F)F)n2)cc1)C(=O)C1CC1F` (centres unmarked) [Compound 1.315, 2-fluoro-N-propoxy-N-[[4-[5-(trifluoromethyl)-1,2,4-oxadiazol-3-yl]phenyl]methyl]-cyclopropane-carboxamide], the pest or weed control at 200 ppm in series [1], in series [2] and in series [3] was no less than 80% in each case. The inhibition of growth at 20 ppm in series [4] was no less than 80%.
Turning to `CCCN(Cc1ccc(-c2noc(C(F)(F)F)n2)cc1)C(=O)C1CCOC1` (centres unmarked) [Compound 1.654, N-propyl-N-[[4-[5-(trifluoromethyl)-1,2,4-oxadiazol-3-yl]phenyl]methyl]-tetrahydrofuran-3-carboxamide], the pest or weed control at 200 ppm in series [1], in series [2] and in series [3] was no less than 80% in each case. In addition, the inhibition of growth at 20 ppm in series [4] was no less than 80%.
On to `CON(Cc1ccc(-c2noc(C(F)(F)F)n2)cc1)C(=O)c1ccccc1Cl` [Compound 1.44, 2-chloro-N-methoxy-N-[[4-[5-(trifluoromethyl)-1,2,4-oxadiazol-3-yl]phenyl]methyl]-benzamide], for which the pest or weed control at 200 ppm in series [1], in series [2] and in series [3] was no less than 80% throughout. Further, the inhibition of growth at 20 ppm in series [4] was no less than 80%.
For the molecule `CON(Cc1ccc(-c2noc(C(F)(F)F)n2)cc1)C(=O)C(C)(C)O` [Compound 1.784, 2-hydroxy-N-methoxy-2-methyl-N-[[4-[5-(trifluoromethyl)-1,2,4-oxadiazol-3-yl]phenyl]methyl]-propanamide], the pest or weed control at 200 ppm in series [1], in series [2] and in series [3] was no less than 80% in each case. The inhibition of growth at 20 ppm in series [4] was no less than 80%.
Take `CCC(C)N(Cc1ccc(-c2noc(C(F)(F)F)n2)cc1)C(=O)COC(C)=O` (centres unmarked) [Compound 1.392, [2-oxo-2-[sec-butyl-[[4-[5-(trifluoromethyl)-1,2,4-oxadiazol-3-yl]phenyl]methyl]-amino]ethyl] acetate]: the pest or weed control at 200 ppm in series [1], in series [2] and in series [3] was no less than 80% in each case. Also, in series [4], the inhibition of growth at 20 ppm was no less than 80%.
In the case of `O=C(C1CCCO1)N(O)Cc1ccc(-c2noc(C(F)(F)F)n2)cc1` (centres unmarked) [Compound 1.770, N-hydroxy-N-[[4-[5-(trifluoromethyl)-1,2,4-oxadiazol-3-yl]phenyl]methyl]-tetrahydrofuran-2-carboxamide], the pest or weed control at 200 ppm in series [1], in series [2] and in series [3] was no less than 80% throughout. Further, the inhibition of growth at 20 ppm in series [4] is no less than 80%.
For the molecule `CON(Cc1ccc(-c2noc(C(F)(F)F)n2)cc1)C(=O)N(C)C1CC1` [Compound 3.58, 1-cyclopropyl-3-methoxy-1-methyl-3-[[4-[5-(trifluoromethyl)-1,2,4-oxadiazol-3-yl]phenyl]methyl]urea], the pest or weed control at 200 ppm in series [1], in series [2] and in series [3] was no less than 80% in each case. Moreover, the inhibition of growth at 20 ppm in series [4] was no less than 80%.
For `CCON(Cc1ccc(-c2noc(C(F)(F)F)n2)cc1)C(=O)C(CC)COC` (centres unmarked) [Compound 1.624, N-ethoxy-2-(methoxymethyl)-N-[[4-[5-(trifluoromethyl)-1,2,4-oxadiazol-3-yl]phenyl]methyl]-butanamide], the pest or weed control at 200 ppm in series [1], in series [2] and in series [3] was no less than 80% throughout. Also, the inhibition of growth at 20 ppm in series [4] was no less than 80%.
Turning to `CCN(Cc1ccc(-c2noc(C(F)(F)F)n2)cc1)C(=O)C1CC1C` (centres unmarked) [Compound 1.500, N-ethyl-2-methyl-N-[[4-[5-(trifluoromethyl)-1,2,4-oxadiazol-3-yl]phenyl]methyl]-cyclopropane-carboxamide], the pest or weed control at 200 ppm in series [1], in series [2] and in series [3] was no less than 80% throughout. The inhibition of growth at 20 ppm in series [4] is no less than 80%.
For the molecule `CCC(=O)N(Cc1ccc(-c2noc(C(F)(F)F)n2)cc1)C1CC1` [Compound 1.119, N-cyclopropyl-N-[[4-[5-(trifluoromethyl)-1,2,4-oxadiazol-3-yl]phenyl]methyl]-propanamide], the pest or weed control at 200 ppm in series [1], in series [2] and in series [3] was no less than 80% throughout. In addition, in series [4], the inhibition of growth at 20 ppm was no less than 80%.
As to `CON(C)C(=O)N(Cc1ccc(-c2noc(C(F)(F)F)n2)cc1)C1CC1` [Compound 3.33, 1-cyclopropyl-3-methoxy-3-methyl-1-[[4-[5-(trifluoromethyl)-1,2,4-oxadiazol-3-yl]phenyl]methyl]urea], the pest or weed control at 200 ppm in series [1], in series [2] and in series [3] was no less than 80% each time. Moreover, the inhibition of growth at 20 ppm in series [4] was no less than 80%.
Take `C#CCCC(=O)N(Cc1ccc(-c2noc(C(F)(F)F)n2)cc1)C1CC1` [Compound 1.86, N-cyclopropyl-N-[[4-[5-(trifluoromethyl)-1,2,4-oxadiazol-3-yl]phenyl]methyl]-pent-4-ynamide]: the pest or weed control at 200 ppm in series [1], in series [2] and in series [3] was no less than 80% each time. Moreover, the inhibition of growth at 20 ppm in series [4] is no less than 80%.
`CC(C)C(=O)N(Cc1ccc(-c2noc(C(F)(F)F)n2)cc1)C1COC1` [Compound 1.738, 2-methyl-N-(oxetan-3-yl)-N-[[4-[5-(trifiuoromethyl)-1,2,4-oxadiazol-3-yl]phenyl]methyl]-propanamide]: the pest or weed control at 200 ppm in series [1], in series [2] and in series [3] was no less than 80% throughout. Moreover, the inhibition of growth at 20 ppm in series [4] is no less than 80%.
`CCC(C)C(=O)N(CCOC)Cc1ccc(-c2noc(C(F)(F)F)n2)cc1` (centres unmarked) [Compound 1.350, N-(2-methoxyethyl)-2-methyl-N-[[4-[5-(trifluoromethyl)-1,2,4-oxadiazol-3-yl]phenyl]methyl]-butanamide]: the pest or weed control at 200 ppm in series [1], in series [2] and in series [3] was no less than 80% throughout. Also, the inhibition of growth at 20 ppm in series [4] is no less than 80%.
With `CCON(Cc1ccc(-c2noc(C(F)(F)F)n2)cc1)C(=O)CCOC` [Compound 1.618, N-ethoxy-3-methoxy-N-[[4-[5-(trifluoromethyl)-1,2,4-oxadiazol-3-yl]phenyl]methyl]-propanamide], the pest or weed control at 200 ppm in series [1], in series [2] and in series [3] was no less than 80% throughout. Further, the inhibition of growth at 20 ppm in series [4] is no less than 80%.
As to `N#CCC(=O)N(Cc1ccc(-c2noc(C(F)(F)F)n2)cc1)C1CC1` [Compound 1.146, 2-cyano-N-cyclopropyl-N-[[4-[5-(trifluoromethyl)-1,2,4-oxadiazol-3-yl]phenyl]methyl]-acetamide], the pest or weed control at 200 ppm in series [1], in series [2] and in series [3] was no less than 80% each time. The inhibition of growth at 20 ppm in series [4] was no less than 80%.

Source of the values: patent US11180462B2, “Microbiocidal oxadiazole derivatives” (SYNGENTA PARTICIPATIONS AG, priority 2015, dated 2021).
